Here are results for eight molecules from patent US20130102009A1, “SIRTUIN ACTIVATORS AND ACTIVATION ASSAYS” (priority 2010, published 2013).

Values joined by “and” are separate entries in the source; they are usually repeats but may differ in a detail not shown here. Equal values may be shown once. Peptide text beside a SMILES is read from it. * marks the point of attachment. AMC = Cc1cc(=O)oc2cc(N*)ccc12

Type in all cases: biochemical
Assay [1] concerns the target T1, SIRT1 (Homo sapiens, UniProt Q96EB6).
T1 sequence (Q96EB6 1-747): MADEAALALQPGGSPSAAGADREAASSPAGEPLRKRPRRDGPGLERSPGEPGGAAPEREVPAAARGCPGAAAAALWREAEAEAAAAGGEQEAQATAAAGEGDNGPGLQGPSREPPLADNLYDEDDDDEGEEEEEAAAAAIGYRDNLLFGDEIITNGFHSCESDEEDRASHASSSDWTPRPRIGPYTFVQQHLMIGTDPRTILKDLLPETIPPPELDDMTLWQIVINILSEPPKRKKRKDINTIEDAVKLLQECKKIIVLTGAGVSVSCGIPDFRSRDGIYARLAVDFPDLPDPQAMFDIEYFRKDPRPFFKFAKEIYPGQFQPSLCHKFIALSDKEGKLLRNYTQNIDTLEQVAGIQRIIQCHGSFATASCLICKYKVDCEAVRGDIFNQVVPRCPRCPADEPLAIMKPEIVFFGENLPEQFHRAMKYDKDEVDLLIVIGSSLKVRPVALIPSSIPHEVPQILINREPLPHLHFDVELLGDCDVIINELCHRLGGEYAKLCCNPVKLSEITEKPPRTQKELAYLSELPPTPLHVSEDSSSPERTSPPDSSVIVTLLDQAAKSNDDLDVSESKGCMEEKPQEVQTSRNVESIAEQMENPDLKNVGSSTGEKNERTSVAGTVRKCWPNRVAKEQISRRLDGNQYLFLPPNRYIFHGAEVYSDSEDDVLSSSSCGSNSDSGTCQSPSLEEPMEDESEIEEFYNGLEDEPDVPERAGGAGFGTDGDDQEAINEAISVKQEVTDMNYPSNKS
Description: Steady-state kinetic parameters for SIRT1 substrates (PNC1-GDH-coupled assay). Also on record: kc/K1: unit not given here. As to conditions: 25° C., pH 7.5, [NAD+]o = 2 mM, [SIRT1]o 50-1,000 nM. On the procedure:
All peptides were prepared by BioPeptide (San Diego, Calif.) and shown to be at least 95% pure by analytical HPLC analysis. Bovine glutamate dehydrogenase (GDH), α-ketoglutarate, NADH and NAD^+ were from Sigma Chemical Company. Full-length, human SIRT1 and the truncated version used for biophysical studies SIRT1(183-664) were prepared as described previously, and shown to have equivalent kinetic properties (Milne et al. (2007) Nature 450, 712-716). The nicotinamidase PNC1 was prepared as described by Denu and colleagues (Smith et al. (2009) Anal Biochem 394, 101-109).
To determine the interaction of STACs with SIRT1 two kinetic methods were employed. One, which was used for TAMRA-peptide, desTAMRA-peptide, des(biotin,TAMRA)-peptide, and p53-20 mer, used a previously described mass spectroscopic method for detection of peptide reaction products (Milne et al. (2007) Nature 450, 712-716). The other, used with peptides of general structure Ac-Arg-His-Lys-Lys^Ac-X, used a continuous, enzyme-coupled method reported previously (Smith et al. (2009) Anal Biochem 394, 101-109), in which the SRT1 product nicotinamide is first converted into nicotinic acid and ammonia by the action of PNC1, and the ammonia then used by GDH to convert α-ketoglutarate into glutamate. This reaction occurs with oxidation of NADH to NAD^+ which is accompanied by a change in absorbance at 340 nm (Δε340=−6,200 M^−1 cm^−1).
The kinetic experiments used to characterize activators were run on a Perkin Elmer Lambda 25 spectrophotometer equipped with a water-jacketed, eight-cell changer maintained at 25° C. In a typical kinetic experiment, all components of the reaction solution except SIRT1 were added to a 1 mL cuvette and allowed to reach thermal equilibrium. Final concentrations of the coupling system components were: 1 μM PNC1, 0.23 mM NADH, 3.4 mM α-ketoglutarate, and 20 U/mL bovine GDH. This solution also contained peptide substrate, NAD^.0., and activator, at concentrations indicated in the text. The final DMSO concentration was kept constant at 1%, and the buffer used in these experiments was 50 mM HEPES, 150 mM NaCl, pH 7.5. While the system was reaching thermal equilibrium, the absorbance was monitored to provide an accurate estimate of the background rate, which was subtracted from the reaction rate after the addition of SIRT1.
The parameters reported in this table were all determined using the PNC1-GDH-coupled assay. Kinetic parameters for the four 20 mers were also estimated using the mass spectroscopy-based assay first described by Milne et al. ((2007) Nature 450, 712-716) and agree with those reported in Table 3.

In assay [2] the target is T1, SIRT1. Description: Mass spectrometry based SIRT1 activation assay (TAMRA/5TMR-labeled 20mer peptide). From the text: A mass spectrometry based assay was used to identify modulators of SIRTI activity. The mass spectrometry based assay utilizes a peptide having 20 amino acid residues as follows: Ac-EE-K(biotin)-GQSTSSHSK(Ac)NleSTEG-K(5TMR)-EE-NH2 (SEQ ID NO: 1) wherein K(Ac) is an acetylated lysine residue and Nle is a norleucine. The peptide is labeled with the fluorophore 5TMR (excitation 540 nrnIemission 580 nm) at the C-terminus. The sequence of the peptide substrate is based on p53 with several modifications. In addition, the methionine residue naturally present in the sequence was replaced with the norleucine because the methionine may be susceptible to oxidation during synthesis and purification.
The mass spectrometry assay is conducted as follows: 0.5 J-1M peptide substrate and 120 μM βNAD^+ is incubated with 10 nM SIRT1 for 25 minutes at 25° C. in a reaction buffer (50 mM Tris-acetate pH 8, 137 mM NaCl, 2.7 mM KCl, 1 mM MgClz, 5 mM DTT, 0.05% BSA). Test compounds may be added to the reaction as described above. The SirTI gene is cloned into a T7-promoter containing vector and transformed into BL21 (DE3). After the 25 minute incubation with SIRT1, 10 μL of 10% formic acid is added to stop the reaction. Reactions are sealed and frozen for later mass spec analysis. Determination of the mass of the substrate peptide allows for precise determination of the degree of acetylation (i.e. starting material) as compared to deacetylated peptide (product).
A control for inhibition of sirtuin activity is conducted by adding 1 μL of 500 mM nicotinamide as a negative control at the start of the reaction (e.g., permits determination of maximum sirtuin inhibition). A control for activation of sirtuin activity is conducted using 10 nM of sirtuin protein, with 1 μL of DMSO in place of compound, to determine the amount of deacetylation of the substrate at a given timepoint within the linear range of the assay. This timepoint is the same as that used for test compounds and, within the linear range, the endpoint represents a change in velocity.
For the above assay, SIRTI protein was expressed and purified as follows. The SirT1 gene was cloned into a T7-promoter containing vector and transformed into BL21(DE3). The protein was expressed by induction with 1 mM IPTG as an N-terminal His-tag fusion protein at 18° C. overnight and harvested at 30,000×g. Cells were lysed with lysozyme in lysis buffer (50 mM Tris-HCl, 2 mM Tris[2-carboxyethyl]phosphine (TCEP), 10 μM ZnCl2, 200 mM NaCl) and further treated with sonication for 10 min for complete lysis. The protein was purified over a Ni-NTA column (Amersham) and fractions containing pure protein were pooled, concentrated and run over a sizing column (Sephadex S200 26/60 global). The peak containing soluble protein was collected and run on an Ion-exchange column (MonoQ). Gradient elution (200 mM-500 mM NaCl) yielded pure 20 protein. This protein was concentrated and dialyzed against dialysis buffer (20 mM TrisHCl, 2 mM TCEP) overnight. The protein was aliquoted and frozen at −80° C. until further use.
Sirtuin modulating compounds that activated SIRT1 were identified using the assay described above and are shown below in Table 4. The EC1.5 values represent the concentration of test compounds that result in 150% activation of SIRT1. The EC1.5 values for the activating compounds are represented by A (EC1.5≦1 μM), B (EC1.5>1 μM). The percent maximum fold activation is represented by A (Fold activation ≧200%) or B (Fold Activation <200%).

The target in assay [3] is T1, SIRT1. Nature of the assay: Mass spectroscopic kinetic assay of SIRT1-catalyzed deacetylation of 20mer peptides. On the procedure:
Bovine glutamate dehydrogenase (GDH), α-ketoglutarate, NADH and NAD^+ were from Sigma Chemical Company. […] The nicotinamidase PNC1 was prepared as described by Denu and colleagues (Smith et al. (2009) Anal Biochem 394, 101-109). Our collection of approximately 5,000 SIRT1 activators was screened using the BioTrove mass spectrometry system, as previously described (Milne et al. (2007) Nature 450, 712-716). […] Compounds were present at 10 μM, and the assays were conducted in a pH 7.4 buffer containing 150 mM Tris, 5 mM DTT, 1% DMSO, and 0.025% BSA. To determine the interaction of STACs with SIRT1 two kinetic methods were employed. […] (2007) Nature 450, 712-716). The other, used with peptides of general structure […], used a continuous, enzyme-coupled method reported previously (Smith et al. (2009) Anal Biochem 394, 101-109), in which the SRT1 product nicotinamide is first converted into nicotinic acid and ammonia by the action of PNC1, and the ammonia then used by GDH to convert α-ketoglutarate into glutamate. This reaction occurs with oxidation of NADH to NAD^+ which is accompanied by a change in absorbance at 340 nm (Δε340=-6,200 M^-1 cm^-1). Activator titrations were plotted as relative velocity (i.e., the ratio of vx, velocity in the presence of activator X, to vo, velocity in the absence of activator) vs. [X]o, initial concentration of activator, and fit by nonlinear least-squares to the mechanism-independent expression for enzyme activation of […] the maximum relative velocity (i.e., vx/vo at infinite [X]o) and EC50 is the activator concentration at which vx/vo=(RVmax-1)/2. EC50 is a function of the kinetic mechanisms of both catalysis and activation, and the concentrations of substrates.

Consider “EEKGQSTSSHK^AcJSTEGKEE [des(Biotin,TAMRA)-peptide]”, for which, at SIRT1 [1], the Km was found to be 40 µM, the kc worked out at 0.044 s⁻¹ and the kc/K1 was 1.1.
In the case of “Ac-EEK^(biotin)GQSTSSHSK^AcNle-STEGK^(5-TMR)EE-NH2 [TAMRA-peptide]”, at SIRT1 [1], the Michaelis-Menten constant (Km) was determined as 8.3 µM, the kc came to 0.036 s⁻¹ and the kc/K1 worked out at 4.3.
At SIRT1 [1], `CC(=O)NCCCC[C@H](NC(=O)[C@H](CCCCN)NC(=O)[C@H](Cc1c[nH]cn1)NC(=O)[C@H](CCCNC(=N)N)NC(C)=O)C(N)=O` [RHKK^Ac, Ac-Arg-His-Lys-Lys^Ac-NH2] (Ac-RHKK(Ac)-NH2) gave a kc of 0.14 s⁻¹ and a kc/K1 of 6.0.
With SKKGQSTSRHKK^AcLJKTEGP [p53-20mer], on SIRT1 [1], the Km stood at 8.5 µM, the kc is 0.36 s⁻¹ and the kc/K1 is on record as 42.
On SIRT1 [1], `CC(=O)NCCCC[C@H](NC(=O)[C@H](CCCCN)NC(=O)[C@H](Cc1c[nH]cn1)NC(=O)[C@H](CCCNC(=N)N)NC(C)=O)C(=O)N[C@@H](Cc1c[nH]c2ccccc12)C(N)=O` [RHKK^AcW, Ac-Arg-His-Lys-Lys^Ac-Trp-NH2] (Ac-RHKK(Ac)W-NH2) registered a kc of 0.19 s⁻¹ and a kc/K1 of 48.
With `CC(=O)NCCCC[C@H](NC(=O)[C@H](CCCCN)NC(=O)[C@H](Cc1c[nH]cn1)NC(=O)[C@H](CCCNC(=N)N)NC(C)=O)C(=O)Nc1ccc2c(C)cc(=O)oc2c1` [RHKK^Ac-AMC, Ac-Arg-His-Lys-Lys^Ac-AMC] (Ac-RHKK(Ac)-{AMC}), on SIRT1 [1], the kc is 0.091 s⁻¹ and the kc/K1 came out at 0.8.
On the same counts, the results for `CC(=O)NCCCC[C@H](NC(=O)[C@H](CCCCN)NC(=O)[C@H](Cc1c[nH]cn1)NC(=O)[C@H](CCCNC(=N)N)NC(C)=O)C(=O)N[C@@H](Cc1ccccc1)C(N)=O` [RHKK^AcF, Ac-Arg-His-Lys-Lys^Ac-Phe-NH2] (Ac-RHKK(Ac)F-NH2) are 0.16 s⁻¹ and 23.
Consider `CCCCc1nc(NCCNC)cc(C(=O)Nc2ccccc2-c2nc3cc(COC4CCNCC4)cnc3s2)n1` [Compound 12, 2-butyl-6-(2-(methylamino)ethylamino)-N-(2-(6-((piperidin-4-yloxy)methyl)thiazolo[5,4-b]pyridin-2-yl)phenyl)pyrimidine-4-carboxamide], for which, at SIRT1 [2] (25 min, percent maximum fold activation of SIRT1, read-out: % FOLD ACT.), the Emax was at least 200%. On SIRT1 [2] (concentration that results in 150% activation of SIRT1), the “EC1.5 uM” value was “A (EC1.5≦1 μM)”. Besides, at SIRT1 [3] (substrate des(biotin,TAMRA)-peptide), the “Effect on the deacetylation of des(biotin,TAMRA)-peptide” value was “none activate”. Further, the “RVmax for activation of the deacetylation of desTAMRA-peptide” value on SIRT1 [3] (substrate desTAMRA-peptide, fit to eq (1)) was around 2.3; on SIRT1 [3] (substrate desTAMRA-peptide, fit to eq (1), listed as 24), 2.1 ± 0.1. Further, the 50% effective concentration (EC50) on SIRT1 [3] (substrate desTAMRA-peptide, fit to eq (1), read-out: EC50 for activation of the deacetylation of desTAMRA-peptide) is ~2000 nM and 1500 nM. For the same molecule, the “Ki,app for inhibition of the deacetylation of p53-20 mer” value on SIRT1 [3] (substrate p53-20 mer, RV=1/(1+([X]o/Ki,app))) is “inhibit”. Moreover, the Ki on SIRT1 [3] (substrate p53-20 mer, RV=1/(1+([X]o/Ki,app)), read-out: Ki,app for inhibition of the deacetylation of p53-20 mer) is 9000 ± 3000 nM.

What is called Km is the substrate concentration at which the rate is half of its maximum. As usually defined, the EC50 is the concentration giving half of the maximal effect.
